Results on one compound are retold here after US20140364316A1, “COMPOSITION FOR IMPROVING RESISTANCE TO ENVIRONMENTAL STRESS OF PLANT AND METHOD FOR IMPROVING RESISTANCE TO ENVIRONMENTAL STRESS OF PLANT” (The Shizuoka Chamber of Commerce and Industry, priority 2012, published 2014).

Molecules are shown by their SMILES.

The subject of one data set is Arabidopsis thaliana. Kind of data set: Evaluation of high temperature resistance 2 (35° C. for 1 hour and 45° C. for 2 hours). The class given is in vivo. The note with it: 4th day after high temperature exposure. As to the method:
As a sanguinarine reagent available on the market, a sanguinarine chloride hydrate (S5890-25MG manufactured by Sigma-Aldrich Japan K.K.) was obtained, the sanguinarine chloride hydrate was dissolved in water such that the sanguinarine concentration is 0.2 ppm, 2 ppm, or 20 ppm, and thus a sample liquid for each test plot was respectively prepared. In addition, as a sample liquid for the control plot, a 0.5% DMSO solution was prepared. By using these sample liquids, the following tests were performed.
Seeds of Arabidopsis thaliana were sowed and cultivated in a rockwool cube which had been saturated with a diluent of the HYPONEX (registered trademark) diluted by 1,000 times. The cultivation environment conditions were a cycle of [bright place for 16 hours+dark place for 8 hours], and a temperature of 22° C. On around the strain of Arabidopsis thaliana on the 14th day after the start of cultivation, a sample liquid composed of an aqueous sanguinarine solution that had been adjusted to various concentrations, and a 0.5% DMSO solution for the control plot were respectively applied dropwise using a dropper. The dropping amount was set to 100 μL per a plant body. Therefore, the sanguinarine amount applied per a plant body in each test plot was 0.02 μg in the test plot of 0.2 ppm, 0.2 μg in the test plot of 2 ppm, and 0.002 mg in the test plot of 20 ppm. After the dropping, under the initial cultivation environment conditions, the cultivation was continued for 2 days, then the room temperature was increased to 35° C., and exposure was performed for 1 hour in a bright place. Further, the room temperature was increased to 45° C., and high temperature exposure was performed for 2 hours in a dark place. […]
The state of the grown true leaves of Arabidopsis thaliana on the 4th day after the high temperature exposure under the above conditions was visually evaluated on a four level scale (index, 3: plant death, 2: partial plant death, 1: partial whitening, and 0: normal), and by assigning the values to the following equation, the average degree of damage was calculated. […]

The test system of the next data set is rats. The note with it: Non Patent Literature 1; cited from earlier work.

Take `C[n+]1cc2c3c(ccc2c2ccc4cc5c(cc4c21)OCO5)OCO3` [sanguinarine]: the “average degree of damage with increasing dosage” value with Arabidopsis thaliana (0.2 ppm to 20 ppm, FIG. 4) is recorded as “average degree of damage of Arabidopsis thaliana is reduced”. Moreover, in the data set on Arabidopsis thaliana (sanguinarine 0.2 ppm, 2 ppm or 20 ppm, 100 μL per plant body, FIG. 3, FIG. 4), the “growth (appearance and average degree of damage) compared with control plot (0.5% DMSO solution)” value is recorded as “growth was relatively favorable”. Moreover, the “average degree of damage” value in the data set with Arabidopsis thaliana (sanguinarine 20 ppm (0.002 mg per plant body)) was “less than 10%”. Moreover, the “physiological disorders after administration” value in the data set with rats is on record as “disorders of particular note were not observed”.
